This is an account of results in publication doi:10.1101/2023.03.24.534094v2 (biorxiv, 2023).

Assay in all cases: biochemical
In assay [1] the target is RSK1b (Homo sapiens, UniProt Q15418).
Assay [2] addresses T1, BMPR2 (Homo sapiens, UniProt Q13873).
T1 sequence (Q13873 1-1038): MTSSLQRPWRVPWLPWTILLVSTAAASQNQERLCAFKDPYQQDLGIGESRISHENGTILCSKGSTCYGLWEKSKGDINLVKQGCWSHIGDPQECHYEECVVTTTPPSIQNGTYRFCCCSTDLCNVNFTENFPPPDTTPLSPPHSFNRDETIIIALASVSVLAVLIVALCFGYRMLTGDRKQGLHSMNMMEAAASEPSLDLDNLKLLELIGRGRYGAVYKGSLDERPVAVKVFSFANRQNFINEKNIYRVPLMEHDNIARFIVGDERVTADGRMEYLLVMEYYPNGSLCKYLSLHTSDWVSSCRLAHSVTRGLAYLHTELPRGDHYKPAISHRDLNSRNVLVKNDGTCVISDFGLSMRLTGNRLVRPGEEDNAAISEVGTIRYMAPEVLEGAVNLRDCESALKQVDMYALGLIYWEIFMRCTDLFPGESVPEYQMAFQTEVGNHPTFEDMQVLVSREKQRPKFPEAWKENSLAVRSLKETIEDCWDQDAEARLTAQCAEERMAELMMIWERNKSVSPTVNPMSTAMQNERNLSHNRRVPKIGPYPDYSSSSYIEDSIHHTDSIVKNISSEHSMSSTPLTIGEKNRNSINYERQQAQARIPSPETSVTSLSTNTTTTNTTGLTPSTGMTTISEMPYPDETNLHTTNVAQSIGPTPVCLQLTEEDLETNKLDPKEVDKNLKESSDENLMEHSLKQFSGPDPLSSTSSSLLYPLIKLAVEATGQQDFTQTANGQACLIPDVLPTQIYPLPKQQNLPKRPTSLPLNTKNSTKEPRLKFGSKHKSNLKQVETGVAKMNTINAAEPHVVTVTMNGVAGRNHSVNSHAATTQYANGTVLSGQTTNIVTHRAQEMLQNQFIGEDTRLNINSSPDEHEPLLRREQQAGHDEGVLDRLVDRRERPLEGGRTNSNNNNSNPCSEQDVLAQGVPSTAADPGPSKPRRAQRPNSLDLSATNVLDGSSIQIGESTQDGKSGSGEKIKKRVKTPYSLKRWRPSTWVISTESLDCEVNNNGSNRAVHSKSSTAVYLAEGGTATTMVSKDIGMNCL

Assay [3] has as its target TAF1 (Homo sapiens, UniProt P21675).
Assay [4] concerns the target BRAF (Homo sapiens, UniProt P15056).
The target in assay [5] is CaMK2d (Homo sapiens, UniProt Q13557).
Assay [6] deals with FES (Homo sapiens, UniProt P07332).
Chain of FES (P07332 whole entry): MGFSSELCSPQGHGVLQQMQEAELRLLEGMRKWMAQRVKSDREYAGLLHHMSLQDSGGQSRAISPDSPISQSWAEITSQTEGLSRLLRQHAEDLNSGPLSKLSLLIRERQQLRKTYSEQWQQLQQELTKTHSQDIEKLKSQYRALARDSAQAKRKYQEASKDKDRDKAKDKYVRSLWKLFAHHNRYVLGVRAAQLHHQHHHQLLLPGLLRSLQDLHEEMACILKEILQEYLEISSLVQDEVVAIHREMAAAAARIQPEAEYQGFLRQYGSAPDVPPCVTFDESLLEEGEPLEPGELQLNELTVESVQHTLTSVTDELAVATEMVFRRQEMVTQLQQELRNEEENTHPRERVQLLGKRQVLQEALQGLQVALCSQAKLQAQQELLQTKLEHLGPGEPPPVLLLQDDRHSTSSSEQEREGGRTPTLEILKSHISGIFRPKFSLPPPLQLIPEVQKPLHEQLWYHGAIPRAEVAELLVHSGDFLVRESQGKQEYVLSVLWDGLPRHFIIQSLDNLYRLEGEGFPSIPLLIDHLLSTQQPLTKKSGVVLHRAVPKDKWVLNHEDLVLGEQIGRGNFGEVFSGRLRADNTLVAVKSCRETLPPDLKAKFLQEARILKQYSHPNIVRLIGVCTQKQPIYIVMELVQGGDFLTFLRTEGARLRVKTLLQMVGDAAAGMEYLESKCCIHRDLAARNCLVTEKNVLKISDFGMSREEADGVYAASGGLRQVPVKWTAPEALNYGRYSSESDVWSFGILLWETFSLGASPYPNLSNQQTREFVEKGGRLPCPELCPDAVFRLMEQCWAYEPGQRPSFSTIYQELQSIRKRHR
Assay [7] concerns the target FLT1 (Homo sapiens, UniProt P17948).
In assay [8] the target is T2, MAP2K6 (Homo sapiens, UniProt P52564).
T2 sequence (P52564 1-334): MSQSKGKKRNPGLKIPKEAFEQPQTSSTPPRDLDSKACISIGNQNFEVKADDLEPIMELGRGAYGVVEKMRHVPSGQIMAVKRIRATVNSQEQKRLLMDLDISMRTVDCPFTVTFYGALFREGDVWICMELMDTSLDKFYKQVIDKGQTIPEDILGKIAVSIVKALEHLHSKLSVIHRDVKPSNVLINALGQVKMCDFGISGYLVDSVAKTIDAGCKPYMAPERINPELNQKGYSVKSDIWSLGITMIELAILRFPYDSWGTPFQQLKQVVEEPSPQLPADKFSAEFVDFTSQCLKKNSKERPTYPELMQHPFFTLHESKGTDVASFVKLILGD

The target in assay [9] is JNK1 (Homo sapiens, UniProt P45983).
Chain of JNK1 (P45983 whole entry): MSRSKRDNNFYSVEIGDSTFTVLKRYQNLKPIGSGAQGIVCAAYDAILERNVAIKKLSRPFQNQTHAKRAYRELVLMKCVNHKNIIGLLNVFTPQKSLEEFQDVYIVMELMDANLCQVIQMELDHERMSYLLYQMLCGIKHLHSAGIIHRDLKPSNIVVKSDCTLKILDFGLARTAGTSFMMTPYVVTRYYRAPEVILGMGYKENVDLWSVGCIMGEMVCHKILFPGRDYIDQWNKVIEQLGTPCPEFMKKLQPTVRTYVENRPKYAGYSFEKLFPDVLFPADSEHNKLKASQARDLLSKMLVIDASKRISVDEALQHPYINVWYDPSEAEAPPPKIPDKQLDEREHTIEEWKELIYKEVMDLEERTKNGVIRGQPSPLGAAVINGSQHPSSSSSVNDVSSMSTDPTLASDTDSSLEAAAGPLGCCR
Assay [10] deals with PCTAIRE1 (Homo sapiens, UniProt Q00536).
In assay [11] the target is T3, TLK1 (Homo sapiens, UniProt Q9UKI8).
T3 sequence (Q9UKI8 1-766): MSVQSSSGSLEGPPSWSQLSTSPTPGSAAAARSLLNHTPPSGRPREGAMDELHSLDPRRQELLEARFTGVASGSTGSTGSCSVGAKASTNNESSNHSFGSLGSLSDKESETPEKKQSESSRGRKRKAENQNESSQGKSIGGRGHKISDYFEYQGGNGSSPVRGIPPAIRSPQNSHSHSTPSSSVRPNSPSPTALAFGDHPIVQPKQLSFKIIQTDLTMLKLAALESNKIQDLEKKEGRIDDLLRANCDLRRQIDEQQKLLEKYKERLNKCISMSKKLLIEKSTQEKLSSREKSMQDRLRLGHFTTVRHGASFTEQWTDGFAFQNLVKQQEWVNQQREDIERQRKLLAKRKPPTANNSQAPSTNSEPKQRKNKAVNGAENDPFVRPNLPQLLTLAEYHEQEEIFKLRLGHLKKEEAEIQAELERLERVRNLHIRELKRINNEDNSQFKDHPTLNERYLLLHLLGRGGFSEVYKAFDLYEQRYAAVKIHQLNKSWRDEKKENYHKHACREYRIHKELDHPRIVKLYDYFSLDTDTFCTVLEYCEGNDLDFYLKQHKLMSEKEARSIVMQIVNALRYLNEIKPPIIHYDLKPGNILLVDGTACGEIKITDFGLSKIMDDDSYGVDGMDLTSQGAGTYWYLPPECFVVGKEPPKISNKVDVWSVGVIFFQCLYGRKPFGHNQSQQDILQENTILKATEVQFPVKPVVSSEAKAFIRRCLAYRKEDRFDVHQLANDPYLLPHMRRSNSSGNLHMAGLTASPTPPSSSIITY

Where two headings read alike, the source gives them in different places.

Chain of BRAF (P15056 whole entry): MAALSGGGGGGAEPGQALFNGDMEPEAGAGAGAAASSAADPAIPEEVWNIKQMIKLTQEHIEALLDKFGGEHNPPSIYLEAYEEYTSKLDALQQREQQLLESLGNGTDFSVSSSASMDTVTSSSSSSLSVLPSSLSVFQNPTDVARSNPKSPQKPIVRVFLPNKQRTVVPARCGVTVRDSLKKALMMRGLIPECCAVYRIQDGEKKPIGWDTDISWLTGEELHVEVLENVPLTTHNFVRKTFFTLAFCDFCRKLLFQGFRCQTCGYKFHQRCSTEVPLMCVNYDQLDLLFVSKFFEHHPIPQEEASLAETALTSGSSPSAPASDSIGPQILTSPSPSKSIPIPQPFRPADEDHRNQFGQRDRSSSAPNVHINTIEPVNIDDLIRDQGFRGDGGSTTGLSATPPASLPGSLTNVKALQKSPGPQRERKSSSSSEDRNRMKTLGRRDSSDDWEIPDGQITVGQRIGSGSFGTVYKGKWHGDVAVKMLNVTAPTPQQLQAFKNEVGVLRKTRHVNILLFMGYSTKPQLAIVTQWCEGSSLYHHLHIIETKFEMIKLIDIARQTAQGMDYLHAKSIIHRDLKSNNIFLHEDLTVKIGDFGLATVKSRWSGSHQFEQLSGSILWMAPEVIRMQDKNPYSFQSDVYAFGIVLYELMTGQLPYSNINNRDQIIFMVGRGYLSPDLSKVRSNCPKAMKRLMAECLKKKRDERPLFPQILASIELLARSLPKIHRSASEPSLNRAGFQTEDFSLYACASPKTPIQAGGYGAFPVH
Chain of TAF1 (P21675 whole entry): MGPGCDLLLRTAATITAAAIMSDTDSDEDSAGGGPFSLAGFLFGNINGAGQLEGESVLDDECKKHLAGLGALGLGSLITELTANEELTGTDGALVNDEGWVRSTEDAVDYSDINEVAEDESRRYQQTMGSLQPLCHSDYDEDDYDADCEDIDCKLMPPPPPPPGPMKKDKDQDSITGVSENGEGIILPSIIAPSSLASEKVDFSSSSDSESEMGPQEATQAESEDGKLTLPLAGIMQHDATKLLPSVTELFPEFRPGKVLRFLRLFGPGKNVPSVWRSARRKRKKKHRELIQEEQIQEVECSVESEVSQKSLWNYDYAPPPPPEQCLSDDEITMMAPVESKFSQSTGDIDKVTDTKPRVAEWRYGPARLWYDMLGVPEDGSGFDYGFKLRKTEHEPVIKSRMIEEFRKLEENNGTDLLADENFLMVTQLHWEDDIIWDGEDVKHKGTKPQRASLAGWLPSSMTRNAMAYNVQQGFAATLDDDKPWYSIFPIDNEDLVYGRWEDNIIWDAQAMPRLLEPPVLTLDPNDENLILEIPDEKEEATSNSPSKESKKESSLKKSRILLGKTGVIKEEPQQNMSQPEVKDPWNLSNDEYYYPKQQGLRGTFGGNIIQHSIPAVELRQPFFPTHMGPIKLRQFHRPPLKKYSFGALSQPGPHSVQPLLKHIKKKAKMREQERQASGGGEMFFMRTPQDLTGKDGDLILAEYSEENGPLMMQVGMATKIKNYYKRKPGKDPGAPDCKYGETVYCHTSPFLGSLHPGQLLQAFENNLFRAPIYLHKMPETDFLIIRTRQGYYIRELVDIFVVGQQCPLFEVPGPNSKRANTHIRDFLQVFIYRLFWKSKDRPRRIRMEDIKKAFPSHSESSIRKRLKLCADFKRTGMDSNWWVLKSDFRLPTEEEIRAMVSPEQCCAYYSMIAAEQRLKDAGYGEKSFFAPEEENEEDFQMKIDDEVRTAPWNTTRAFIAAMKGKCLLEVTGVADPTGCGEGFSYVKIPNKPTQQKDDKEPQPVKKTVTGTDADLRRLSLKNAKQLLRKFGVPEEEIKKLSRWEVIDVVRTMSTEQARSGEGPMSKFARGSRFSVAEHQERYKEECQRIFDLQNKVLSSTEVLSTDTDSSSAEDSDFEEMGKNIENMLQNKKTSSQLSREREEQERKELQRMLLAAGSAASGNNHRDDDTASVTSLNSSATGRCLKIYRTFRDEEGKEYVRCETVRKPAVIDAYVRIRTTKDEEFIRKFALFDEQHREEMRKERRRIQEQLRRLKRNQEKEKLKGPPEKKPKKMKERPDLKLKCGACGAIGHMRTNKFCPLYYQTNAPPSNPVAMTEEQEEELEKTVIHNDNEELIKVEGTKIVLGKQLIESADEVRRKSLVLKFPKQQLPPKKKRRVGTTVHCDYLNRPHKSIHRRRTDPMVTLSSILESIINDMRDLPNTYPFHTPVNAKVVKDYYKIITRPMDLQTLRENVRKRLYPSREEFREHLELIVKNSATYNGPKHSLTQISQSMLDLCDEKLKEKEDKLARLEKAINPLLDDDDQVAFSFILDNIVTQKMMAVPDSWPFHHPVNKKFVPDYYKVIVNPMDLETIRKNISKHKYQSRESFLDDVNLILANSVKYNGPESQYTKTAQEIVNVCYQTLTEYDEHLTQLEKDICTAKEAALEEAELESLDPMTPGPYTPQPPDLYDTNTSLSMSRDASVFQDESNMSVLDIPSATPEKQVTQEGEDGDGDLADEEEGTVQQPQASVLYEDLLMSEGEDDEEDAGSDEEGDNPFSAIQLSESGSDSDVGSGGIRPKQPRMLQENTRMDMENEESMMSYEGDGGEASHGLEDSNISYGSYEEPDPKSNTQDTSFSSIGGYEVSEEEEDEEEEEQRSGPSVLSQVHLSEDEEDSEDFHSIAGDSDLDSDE
Chain of RSK1b (Q15418 whole entry): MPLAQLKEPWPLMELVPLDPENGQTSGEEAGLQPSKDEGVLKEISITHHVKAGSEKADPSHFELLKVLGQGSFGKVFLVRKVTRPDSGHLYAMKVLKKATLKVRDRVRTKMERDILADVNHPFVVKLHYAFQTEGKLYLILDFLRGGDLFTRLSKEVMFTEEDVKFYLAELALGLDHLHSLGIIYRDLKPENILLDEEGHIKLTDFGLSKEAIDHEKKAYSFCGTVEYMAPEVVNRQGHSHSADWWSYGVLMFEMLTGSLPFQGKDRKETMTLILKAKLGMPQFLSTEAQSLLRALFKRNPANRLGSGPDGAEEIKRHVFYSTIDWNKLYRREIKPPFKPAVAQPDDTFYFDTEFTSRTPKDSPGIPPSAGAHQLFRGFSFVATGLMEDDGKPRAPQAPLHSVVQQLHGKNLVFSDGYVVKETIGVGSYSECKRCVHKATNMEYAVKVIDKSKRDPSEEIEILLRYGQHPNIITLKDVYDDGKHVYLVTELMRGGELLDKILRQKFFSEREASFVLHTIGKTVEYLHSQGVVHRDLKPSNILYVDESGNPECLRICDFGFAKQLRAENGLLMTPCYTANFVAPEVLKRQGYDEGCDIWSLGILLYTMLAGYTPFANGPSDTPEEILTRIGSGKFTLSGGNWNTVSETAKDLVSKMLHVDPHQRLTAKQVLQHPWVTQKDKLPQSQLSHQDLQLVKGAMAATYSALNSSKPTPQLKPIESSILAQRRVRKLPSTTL

`CNc1ncc2cc(-c3ccccc3Cl)c(=O)n(CCCCN)c2n1` [compound 4, 8-(4-Aminobutyl)-6-(2-chlorophenyl)-2-(methylamino)pyrido[2,3-d]pyrimidin-7(8H)-one]: the ΔTm at 10 µM in [1] (read-out: dTm MR21 (4)) was 5.8 °C; in assay [2] (read-out: dTm MR21 (4)) it was 1.6 °C; in assay [3] (read-out: dTm MR21 (4)), -0.1 °C; in assay [4] (read-out: dTm MR21 (4)) it was 12.2 °C; in [5] (read-out: dTm MR21 (4)), 0 °C; in assay [6] (read-out: dTm MR21 (4)), 3 °C. Also, the ΔTm at 10 µM in assay [7] (read-out: dTm MR21 (4)) amounted to 5.4 °C; in [8] (read-out: dTm MR21 (4)), 3.1 °C; in assay [9] (read-out: dTm MR21 (4)), 0.9 °C; in [10] (read-out: dTm MR21 (4)), 1.8 °C; in assay [11] (read-out: dTm MR21 (4)) it was 0.5 °C.
Turning to `CNc1ncc2cc(-c3cc(Br)ccc3Cl)c(=O)n(CCCCN)c2n1` [compound 6, 8-(4-Aminobutyl)-6-(5-bromo-2-chlorophenyl)-2-(methylamino)pyrido[2,3-d]pyrimidin-7(8H)-one], the ΔTm at 10 µM was 6.3 °C in assay [1] (read-out: dTm 6); -0.3 °C in assay [2] (read-out: dTm 6); -0.6 °C in [3] (read-out: dTm 6); 10.8 °C in assay [4] (read-out: dTm 6); 0 °C in assay [5] (read-out: dTm 6); 2.5 °C in [6] (read-out: dTm 6). Moreover, the ΔTm at 10 µM was 6 °C in assay [7] (read-out: dTm 6); 1.4 °C in [8] (read-out: dTm 6); 0.2 °C in [9] (read-out: dTm 6); 1.1 °C in assay [10] (read-out: dTm 6); 0 °C in [11] (read-out: dTm 6).
Regarding `CNc1ncc2cc(-c3ccc(-c4cccc(C)n4)cc3Cl)c(=O)n(CC3OCC(N)CO3)c2n1` (stereo not shown) [compound 2, G-5555], the “dTm G-5555 (2)” value in [1] (10 µM, binder) is 0.0 °C; in assay [2] (10 µM, binder), -0.4 °C; in [4] (10 µM, binder), 3.9 °C; in [5] (10 µM, binder) it was -0.1 °C; in assay [6] (10 µM, binder) it was 4.1 °C; in assay [7] (10 µM, binder), 1.7 °C. For the same molecule, the “dTm G-5555 (2)” value is 4.4 °C in assay [8] (10 µM, binder); 1.3 °C in [10] (10 µM, binder); -0.3 °C in [11] (10 µM, binder).
`CNc1ncc2cc(-c3cc(F)ccc3F)c(=O)n(CCCCN)c2n1` [compound 5, 8-(4-Aminobutyl)-6-(2,5-difluorophenyl)-2-(methylamino)pyrido[2,3-d]pyrimidin-7(8H)-one]: the ΔTm at 10 µM was 5.4 °C in assay [1] (read-out: dTm MR22 (5)); 0.3 °C in assay [2] (read-out: dTm MR22 (5)); 0.2 °C in [3] (read-out: dTm MR22 (5)); 9.2 °C in assay [4] (read-out: dTm MR22 (5)); -0.6 °C in assay [5] (read-out: dTm MR22 (5)); 4.6 °C in assay [7] (read-out: dTm MR22 (5)). Also, the ΔTm at 10 µM was 1 °C in assay [8] (read-out: dTm MR22 (5)), 5.5 °C in [9] (read-out: dTm MR22 (5)), 0.3 °C in assay [10] (read-out: dTm MR22 (5)) and -1.3 °C in [11] (read-out: dTm MR22 (5)).
For the molecule `CNc1ncc2cc(-c3cc(Br)ccc3Cl)c(=O)n(C[C@H]3OC[C@H](N)CO3)c2n1` [compound 7, 8-(((2r,5r)-5-Amino-1,3-dioxan-2-yl)methyl)-6-(5-bromo-2-chlorophenyl)-2-(methylamino)pyrido[2,3-d]pyrimidin-7(8H)-one], the ΔTm at 10 µM in [1] (read-out: dTm 7) was 5.1 °C; in assay [2] (read-out: dTm 7), 0 °C; in assay [3] (read-out: dTm 7) it was -0.8 °C; in assay [4] (read-out: dTm 7), 8.3 °C; in [5] (read-out: dTm 7), 0.4 °C; in [6] (read-out: dTm 7) it was 1.1 °C. Moreover, the ΔTm at 10 µM stood at 5.4 °C in assay [7] (read-out: dTm 7); 0.9 °C in assay [8] (read-out: dTm 7); 0.9 °C in [9] (read-out: dTm 7); 0.1 °C in assay [10] (read-out: dTm 7); 0.9 °C in [11] (read-out: dTm 7).
